For series [1], the system named is Streptomyces. The note with it: cited from earlier work. From the text:
Therefore, we hypothesized that Sv may catabolize those exogenous CLPs and use them as nutritional sources. […] (Fig. 2E and F). Extraction of the me ...

Series [2] is described as follows: Sv cultures grown on gelified GA1 ΔbaeJ-mlnA-dfnA CFS. The note with it: Streptomyces venezuelae, 28°C, up to 3 days.
The nature of series [3]: Streptomyces. As to conditions: cited from earlier work.
Series [4] can be described thus: Sv cell-free supernatant (CFS). As to conditions: Streptomyces venezuelae ATCC 10712, 30°C, up to 24 h; time course up to 48 h.
Series [5] can be described thus: confrontation zone between B. velezensis GA1 and S. venezuelae ATCC 10712 on REM solid medium (agar extract). As to conditions: Streptomyces venezuelae ATCC 10712 / Bacillus velezensis GA1, 26°C, up to 3 days.
The nature of series [6]: rhizosphere extracts (agar near tomato roots co-inoculated with Bv and Sv, Hoagland solid medium). The note with it: Streptomyces venezuelae ATCC 10712 / Bacillus velezensis GA1-GFP on tomato (Solanum lycopersicum var. Moneymaker), 22°C, up to 7 days.
In series [7] the test system is S. venezuelae supernatant (secreted enzymes). Description: In vitro degradation of CLPs by S. venezuelae cell-free supernatant. As to conditions: shaking 180 rpm; for degradation of Pseudomonas CLPs by Sv CFS: Pseudomonas CFS (CAA medium) supplemented with 4% (vol/vol) Sv CFS, 24 h at 30°C, UPLC-MS and MS/MS, degraded to different degrees. The series is classed as in vitro ADME, Streptomyces venezuelae ATCC 10712. How it is done: S. venezuelae cultures were performed on ISP2 medium at 28°C (yeast extract 4 g/L, malt extract 10 g/L, glucose 4 g/L, agar 20 g/L; pH 7.3). On 12 × 12 cm Petri square plates, three stripes (1 × 12 cm) of spores were inoculated with a cotton swab [40 µL of spores suspension (10^7 spores/mL) each], spaced by 3 cm each. The plates were left for 7 days of incubation. Next, the agar media was recovered and placed in Falcon tubes at −20°C for 24 h. Then, the agar media were defrosted at room temperature and centrifuged (8,000 rpm for 20 min). Finally, the supernatant leaked from the agar was collected, filtered sterilized (0.22-µm pore size filters) and stored at −20°C until further use. The heat-treated Sv supernatant was generated by incubating an aliquot of the cell-free supernatant of Sv for 10 min at 98°C. The supernatant was then filtered (0.22-µm pore size filters) and stored at −20°C until further use.
[…] Then the solutions were incubated for 24 h at 30°C with continuous shaking (180 rpm). Next, the solution were centrifuged (1 min at 10,000 rpm), filtered (0.22-µm pore size filters), and analyzed by UPLC-MS.
The degradation assays of Pseudomonas CLPs were performed using CFS generated as described above. They were supplemented by 4% (vol/vol) of S. venezuelae CFS prepared as described previously. Next, the solutions were incubated for 24 h at 30°C with continuous shaking (180 rpm). Then, the solution were centrifuged (1 min at 10,000 rpm), filtered (0.22-µm pore size filters), and analyzed by UPLC-MS.
For the CLP degradation kinetic experiments, surfactin, iturin, and fengycin solutions supplemented with S. venezuelae supernatant were prepared following the same protocol. Twenty microliters of solution was sampled at each time point and directly mixed with 80 µL of acetonitrile to stop enzymatic degradation. Finally, they were stored at −20°C until analysis by UPLC-MS.
All UPLC-MS analyses were performed using an Agilent 1290 Infinity II coupled with a diode array detector and a mass detector (Jet Stream ESI-Q-TOF 6530) in positive mode with the parameters set up as follows: capillary voltage of 3.5 kV, nebulizer pressure of 35 lb/in^2, drying gas of 8 L/min, drying gas temperature of 300°C, flow rate of sheath gas of 11 L/min, sheath gas temperature of 350°C, fragmentor voltage of 175 V, skimmer voltage of 65 V, and octopole radiofrequency of 750 V. Accurate mass spectra were recorded in the m/z range of 300–1,700. For untargeted MS/MS, we used the same MS1 parameters as described. We added MS2 untargeted acquisition mode with the parameters as follows: MS/MS range 50–1,700 m/z; MS/MS scan rate 3 spectra/s; isolation width MS/MS medium (approx. 4 AMU), Decision Engine Native; fixed collision energies of 25 and 40 V for surfactin, 50 V for iturin, and 60 V for fengycin experiments; precursor selection: three for the surfactin experiment, four for the iturin and fengycin experiments, threshold 1,500 (Abs), isotope model common, active exclusion after two spectra and release after 0.5 min, sorting the precursors by charge state then abundance (charge state preference 1). For targeted MS/MS, we used the same MS1 parameters MS/MS range of 50–1,700 m/z or 50–3,200 (when required for Pseudomonas CLPs with mass >1,700 Da), MS/MS scan rate 3 spectra/s, isolation width MS/MS narrow (approx. 1.3 amu), and fixed collision energies 20, 40, and 60V. In all experiments, a C18 Acquity UPLC ethylene bridged hybrid column (2.1 mm × 50 mm × 1.7 µm; Waters Corporation, Milford, MA, USA) was used at a flow rate of 0.6 mL/min and a temperature of 40°C. The injection volume was 20 µL, and the diode array detector scanned a wavelength spectrum between 190 and 600 nm. Unless otherwise mentioned, a gradient of acidified water (0.1% formic acid) (solvent A) and of acidified acetonitrile (0.1% formic acid) (solvent B) was used as mobile phase with a constant flow rate of 0.6 mL/min, starting at 10% B and rising to 100% B in 20 min. […]

Series [8] concerns Streptomyces venezuelae ATCC 10712. Description: Confrontation assay B. velezensis GA1 / S. venezuelae on REM plate, UPLC-MS metabolite profiling of the agar. The note with it: gelified REM, 3 days at 26°C. How it is done:
Confrontation assays were performed on square Petri dishes (12 × 12 cm) with 40 mL of REM solid medium at 26°C (REM supplemented with 14 g/L of agar).
S. venezuelae ATCC 10712 was inoculated as stripes (1 × 12 cm) in the middle of the plate with 40 µL of spore suspension (10^7 spores/mL) and spread with a cotton swab. Next, B. velezensis GA1 cells were collected from fresh precultures as described and adjusted to OD600 nm 0.1. Then, 5 µL of B. velezensis GA1 suspension was spotted at 1 cm of the Streptomyces line. Control plates were done following the same procedure without the inoculation of either Bacillus or Streptomyces. Plates were then incubated for 3 days at 26°C in the dark. Pictures of the plates were then captured using a CoolPix camera (NIKKOR ×60 wide optical zoom extra-low dispersion vibration reduction 4.3–258.0 mm 1:33 to 6.5).
The extraction of the metabolites from the agar was performed as follows. For the confrontation experiment, we precisely sampled the area of agar (2 × 1 cm) near the colony of Bacillus or Streptomyces (the confrontation zone is 1 cm wide) with standardized plugs. For the in planta, we sampled the agar area (1 × 1 cm) near the tomato roots. In both cases, the agar samples were transferred to Eppendorf tubes and placed for 24 h at −20°C. Then, the agar was thawed at room temperature and centrifuged for 10 min at 13,000 rpm. The supernatants were then collected and filtered (0.22-µm pore size filters) before UPLC-MS analysis.
All UPLC-MS analyses were performed using an Agilent 1290 Infinity II coupled with a diode array detector and a mass detector (Jet Stream ESI-Q-TOF 6530) in positive mode with the parameters set up as follows: capillary voltage of 3.5 kV, nebulizer pressure of 35 lb/in^2, drying gas of 8 L/min, drying gas temperature of 300°C, flow rate of sheath gas of 11 L/min, sheath gas temperature of 350°C, fragmentor voltage of 175 V, skimmer voltage of 65 V, and octopole radiofrequency of 750 V. Accurate mass spectra were recorded in the m/z range of 300–1,700. For untargeted MS/MS, we used the same MS1 parameters as described. We added MS2 untargeted acquisition mode with the parameters as follows: MS/MS range 50–1,700 m/z; MS/MS scan rate 3 spectra/s; isolation width MS/MS medium (approx. 4 AMU), Decision Engine Native; fixed collision energies of 25 and 40 V for surfactin, 50 V for iturin, and 60 V for fengycin experiments; precursor selection: three for the surfactin experiment, four for the iturin and fengycin experiments, threshold 1,500 (Abs), isotope model common, active exclusion after two spectra and release after 0.5 min, sorting the precursors by charge state then abundance (charge state preference 1). For targeted MS/MS, we used the same MS1 parameters MS/MS range of 50–1,700 m/z or 50–3,200 (when required for Pseudomonas CLPs with mass >1,700 Da), MS/MS scan rate 3 spectra/s, isolation width MS/MS narrow (approx. 1.3 amu), and fixed collision energies 20, 40, and 60V. In all experiments, a C18 Acquity UPLC ethylene bridged hybrid column (2.1 mm × 50 mm × 1.7 µm; Waters Corporation, Milford, MA, USA) was used at a flow rate of 0.6 mL/min and a temperature of 40°C. The injection volume was 20 µL, and the diode array detector scanned a wavelength spectrum between 190 and 600 nm. Unless otherwise mentioned, a gradient of acidified water (0.1% formic acid) (solvent A) and of acidified acetonitrile (0.1% formic acid) (solvent B) was used as mobile phase with a constant flow rate of 0.6 mL/min, starting at 10% B and rising to 100% B in 20 min. Solvent B was kept at 100% for 4 min before going back to the initial ratio. MassHunter Workstation (version 10.0) and ChemStation software were used for data collection and analysis. For untargeted analysis of iturin and fengycin degradation products, we used the same solvent and flow rate, starting at 10% B to 20% in 2 min, then rising to 50% B at 14 min and 100% B at 25 min, followed by 100% B and 5 at 10% B at 6 min.

Entries after “also recorded” stand apart in the source; their conditions may differ.

Consider macrolactin, for which the “toxicity toward Streptomyces” value in the series with Streptomyces [1] was “toxicity”.
Turning to difficidin, in the series on Streptomyces [1], the “toxicity toward Streptomyces” value is on record as “toxicity”.
On to Fa Glu Leu Leu Val Asp Leu Leu, for which the fragment found entry in series [2] is “Linear surfactin; also recorded: ELLVDLL; also recorded: LLVDLL”; in “Streptomyces [3]”, “linear surfactin”; in series [4], “Linear surfactin, first_seen and FaEL”; in series [5], “Linear surfactin”; in series [6], “linear surfactins; also recorded: ELLVDLL”. The cleaved bond entry in series [4] is “Fa-E and E-L and L-L and L-V”; in series [5], “Fa-E”.
In the case of `C/C(=C/C=C/C=C/C(C)C(=O)O)NC(=O)CC(O)\C(C)=C/C=C\C=C(C)\C=C\C=C/C=C/CNC(=O)C(O)CC(C)C` (centres unmarked) [bacillaene], the “toxicity toward Streptomyces” value in the series with Streptomyces [1] is given as “toxicity”.
Turning to “VSLVVQLVDhbTIHseDabK (lariat or depsi) [sessilin, Pseudomonas cyclic lipopeptide, tested in Pseudomonas cell-free supernatant]”, the “degradation of Pseudomonas CLPs by Sv CFS” value in series [7] is “degraded”.
Regarding putisolvin, the “degradation of Pseudomonas CLPs by Sv CFS” value in series [7] was “degraded”.
In the case of xantholisin, in series [7], the “degradation of Pseudomonas CLPs by Sv CFS” value is “degraded”.
Regarding fengycin, in series [8] (UPLC-MS, MS/MS), the “shorter CLP fragment detected in the confrontation zone but not in Bv monoculture” value is listed as “loss of the terminal isoleucine”. Besides, the “abundance of the CLP in the confrontation zone compared with monocultures” value in series [8] (agar extract of confrontation zone, UPLC-Q-TOF-MS peak areas, three biological replicates) is reported as “decrease in the abundance”. The “degradation of pure Bacillus CLPs by Sv CFS” value in series [7] (pure CLPs (100 µM) incubated 24 h at 30°C with 4% (vol/vol) Sv CFS (grown on ISP2, 0.22-µm filtered), UPLC-MS/MS with feature-based molecular networking) is “degrades”.
Consider orfamide, for which, in series [7], the “degradation of Pseudomonas CLPs by Sv CFS” value was “degraded”.

(Values after publication PMC10783051 (Microbiology Spectrum, 2023).)
